Assay results taken from patent US20060293374A1, “Substituted isothiazolones” (priority 2005, published 2006).

Assays:
[1] = test system: PMA Induced Acute Ear Edema; test: PMA induced acute ear edema (mouse); type: in vivo; details: ear punch weight 6 h after PMA; for % Inh (percent inhibition of edema): test compound applied topically at about 1% to about 10%, 10 min before PMA
Method: PMA Induced Acute Ear Edema
PMA was prepared […] in an acetone:water mixture (99:1). 10 μL of 200 ng/10 μL was applied to the left ears of the mice. Control mice received 10 μL of vehicle. Test compounds were dissolved in the vehicle and applied at a test concentration of from about 1% to about 10% (depending on solubility) at 10 min before PMA application. β-methasone (1%) was used as a control. Six hours after the PMA application, mice were sacrificed and 6 mm ear punch biopsies were removed and weighed to assess edema.

[2] = test system: Neutrophil LTB4; test: Neutrophil LTB4 assay (calcium ionophore challenge, EIA); type: cell-based; details: Neutrophil; test concentration of 5 μM; human neutrophils, calcium ionophore 1 μM; read-out: LTB4 percent inhibition
Method: Neutrophils purified from human blood were resuspended in HBSS buffer containing calcium and magnesium to a cell density of 1×10^6/mL. Purified neutrophils were then incubated with test compounds at a test concentration of 5 μM for 15 min at 37° C. Following incubation, the cells were challenged with calcium ionophore (1 μM final) for 15 minutes at 37° C. Negative control wells were incubated with equal volume of vehicle. The reaction was stopped by transferring the plate to ice for 5 minutes. The plate was centrifuged at 1500 RPM for 5 min at 4° C. LTB4 was calculated in cell free supernatants by EIA (Assay Design Inc).

[3] = test system: TXB2 Released by Human Platelets; test: Ionophore and arachidonic acid induced TXB2 released by human platelets (EIA); type: cell-based; details: human platelet-rich plasma; for IC50: challenge with calcium ionophore (10 μM) or arachidonic acid (50 μM)
Method: Ionophore and Arachidonic Acid Induced TXB2 Released by Human Platelets
The plate was incubated for 15 minutes at 37° C. Following incubation, platelets were challenged with calcium ionophore (final 10 μM) or arachidonic acid (AA) (final 50 μM) and the plate was further incubated at 37° C. for 15 min. The plate was transferred to an ice bed for 5 min in order to stop the reaction. Supernatants were assayed for TXB2 production by EIA (Assay Design Inc) after diluting with assay buffer (Assay Design Inc).

[4] = test system: Neutrophil LTB4; test: Neutrophil LTB4 assay (calcium ionophore challenge, EIA); type: cell-based; details: human neutrophils, calcium ionophore 1 μM

Structure (SMILES)	% Inh (percent inhibition of edema) [1] [%]	inhibition at 5 µM [2] [%]	IC50 [3] [nM]	IC50 [4] [nM]	melting point [°C]	β-methasone control, percent inhibition of edema ([1]; β-methasone (1%) used as control) [%]	inhibition at 1 µM ([3]; test concentration of 1 μM, calcium ionophore or arachidonic acid challenge, read-out: TXB2 percent inhibition) [%]
O=c1ccsn1Cc1ccc(-n2cc(Cl)cn2)cc1 [Cpd 57, 2-[4-(4-chloro-pyrazol-1-yl)-benzyl]-isothiazol-3-one]	100	100	3000	–	–	–	–
Cc1nc(-c2cccc(Cn3sccc3=O)c2)cs1 [Cpd 48, 2-[3-(2-methyl-thiazol-4-yl)benzyl]-isothiazol-3-one]	–	–	1500	1500	–	–	–
O=C(c1ccccc1)c1ccc(Cn2sccc2=O)cc1 [Cpd 51, 2-(4-benzoylbenzyl)-isothiazol-3-one]	84	90	1200	–	–	–	–
O=c1cc(Cl)sn1Cc1cc2ccccc2s1 [Cpd 7, 2-benzo[b]thiophen-2-ylmethyl-5-chloro-isothiazol-3-one]	–	95	460	–	101 to 103	–	–
Cc1nc(-c2ccc(Cn3sccc3=O)cc2)cs1 [Cpd 26, 2-[4-(2-methyl-thiazol-4-yl)-benzyl]-isothiazol-3-one]	–	–	400	1700	150.5 to 152	–	–
O=c1ccsn1Cc1cccc2ccccc12 [Cpd 2, 2-naphthalen-1-ylmethyl-isothiazol-3-one]	–	81	3000	–	121 to 125	–	–
O=c1cc(Cl)sn1Cc1sc2ccccc2c1Cl [Cpd 6, 5-chloro-2-(3-chloro-benzo[b]thiophen-2-ylmethyl)-isothiazol-3-one]	–	70	710	–	118 to 120	–	–
O=c1cc(Cl)sn1Cc1ccc2c(c1)CCO2 [Cpd 16, 5-chloro-2-(2,3-dihydro-benzofuran-5-ylmethyl)-isothiazol-3-one]	–	97	250	–	100 to 102	–	–
O=c1ccsn1Cc1cc2ccccc2s1 [Cpd 9, 2-benzo[b]thiophen-2-ylmethyl-isothiazol-3-one]	72	84	1800	–	144 to 146	–	–
O=c1cc(Cl)sn1Cc1ccc(-c2csnn2)cc1 [Cpd 21, 5-chloro-2-(4-[1,2,3]thiadiazol-4-yl-benzyl)isothiazol-3-one]	–	87	1000	–	152 to 154	–	–
O=c1ccsn1Cc1cccc(-c2ccco2)c1 [Cpd 49, 2-(3-furan-2-yl-benzyl)-isothiazol-3-one]	–	100	1200	–	78 to 80	–	–
O=c1[nH]sc(Cl)c1Cc1csc(-c2cccs2)n1 [Cpd 62, 5-chloro-(2-thiophen-2-yl-thiazol-4-ylmethyl)-isothiazol-3-one]	–	96	800	–	–	–	–
COC(=O)c1ccc(Cn2sc(Cl)cc2=O)cc1 [Cpd 37, 4-(5-chloro-3-oxo-3H-isothiazol-2-ylmethyl)-benzoic acid methyl ester]	–	95	500	–	–	–	–
O=c1c(Cl)c(Cl)sn1[C@H]1C[C@@H]1c1ccccc1 [Cpd 39, (1S,2R)-4,5-dichloro-2-(2-phenyl-cyclopropyl)-isothiazol-3-one]	–	94	200	–	–	–	–
Cc1nc(-c2cccc(-n3sc(Cl)cc3=O)c2)c(Cl)s1 [Cpd 44, 5-chloro-2-[3-(2-methyl-5-chloro-thiazol-4-yl)-phenyl]-isothiazol-3-one]	–	69	2000	–	–	–	–
O=c1cc(Cl)sn1CC1CCCc2ccccc21 (stereo not shown) [Cpd 4, 5-chloro-2-(1,2,3,4-tetrahydro-naphthalen-1-ylmethyl)-isothiazol-3-one]	–	100	3300	–	–	–	–
O=C(c1ccccc1)c1ccc(Cn2sc(Cl)cc2=O)cc1 [Cpd 35, 5-chloro-2-(4-benzoylbenzyl)-isothiazol-3-one]	–	100	60	–	–	–	–
O=c1ccsn1Cc1ccc2c(c1)CCO2 [Cpd 17, 2-(2,3-dihydro-benzofuran-5-ylmethyl)-isothiazol-3-one]	–	39	5800	–	–	–	–
C[C@H]1C[C@H]2[C@@H]3CCC4=CC(=O)C=C[C@]4(C)[C@@]3(F)[C@@H](O)C[C@]2(C)[C@@]1(O)C(=O)CO [β-methasone, reference compound]	–	–	–	–	–	100	–
O=c1ccsn1Cc1cccc(-c2ccncc2)c1 [Cpd 50, 2-(3-pyridin-4-yl-benzyl)-isothiazol-3-one]	–	100	500	–	–	–	–
O=CC#Cc1cccc(Cn2sc(Cl)cc2=O)c1 [Cpd 60, [3-(5-chloro-3-oxo-3H-isothiazol-2-ylmethyl)-phenyl]-propynal]	–	100	–	–	–	–	72
